Data taken from ChEMBL document CHEMBL1141566, “Synthesis and antitumor evaluation of bis aza-anthracene-9,10-diones and bis aza-anthrapyrazole-6-ones” (2008).

Columns and labels:
[1] = tested on: HT-29; assay: Effect on apoptosis in human HT29 PI+/AnnV+ cells after 6 hrs by biparametric flow cytometric analysis; type: functional; conditions: HT-29, 6 h, read-out: LC50 (the source's name)
[2] = tested on: HT-29; assay: Effect on apoptosis in human HT29 PI-/AnnV- cells after 12 hrs by biparametric flow cytometric analysis; type: functional; conditions: HT-29, 12 h, read-out: LC50 (the source's name)
[3] = tested on: HT-29; assay: Effect on apoptosis in human HT29 PI-/AnnV- cells after 6 hrs by biparametric flow cytometric analysis; type: functional; conditions: HT-29, 6 h, read-out: LC50 (the source's name)
[4] = tested on: HT-29; assay: Effect on apoptosis in human HT29 PI+/AnnV- cells after 24 hrs by biparametric flow cytometric analysis; type: functional; conditions: HT-29, 24 h, read-out: LC50 (the source's name)
[5] = tested on: HT-29; assay: Cytotoxicity against human HT29 cells after 72 hrs; type: functional; conditions: HT-29, 72 h
[6] = tested on: HT-29; assay: Effect on apoptosis in human HT29 PI-/AnnV+ cells after 12 hrs by biparametric flow cytometric analysis; type: functional; conditions: HT-29, 12 h, read-out: LC50 (the source's name)
[7] = tested on: HT-29; assay: Effect on apoptosis in human HT29 PI+/AnnV- cells after 12 hrs by biparametric flow cytometric analysis; type: functional; conditions: HT-29, 12 h, read-out: LC50 (the source's name)
[8] = tested on: HT-29; assay: Effect on apoptosis in human HT29 PI+/AnnV+ cells after 24 hrs by biparametric flow cytometric analysis; type: functional; conditions: HT-29, 24 h, read-out: LC50 (the source's name)
[9] = tested on: HT-29; assay: Effect on apoptosis in human HT29 PI-/AnnV+ cells after 6 hrs by biparametric flow cytometric analysis; type: functional; conditions: HT-29, 6 h, read-out: LC50 (the source's name)
[10] = tested on: HT-29; assay: Effect on apoptosis in human HT29 PI+/AnnV- cells after 6 hrs by biparametric flow cytometric analysis; type: functional; conditions: HT-29, 6 h, read-out: LC50 (the source's name)
[11] = tested on: HT-29; assay: Effect on apoptosis in human HT29 PI-/AnnV- cells after 24 hrs by biparametric flow cytometric analysis; type: functional; conditions: HT-29, 24 h, read-out: LC50 (the source's name)
[12] = tested on: HT-29; assay: Effect on apoptosis in human HT29 PI+/AnnV+ cells after 12 hrs by biparametric flow cytometric analysis; type: functional; conditions: HT-29, 12 h, read-out: LC50 (the source's name)
[13] = tested on: HT-29; assay: Effect on apoptosis in human HT29 PI-/AnnV+ cells after 24 hrs by biparametric flow cytometric analysis; type: functional; conditions: HT-29, 24 h, read-out: LC50 (the source's name)
[14] = Ratio of Kapp for synthetic poly(dA-dT)]2 oligonucleotide to Kapp for synthetic poly(dG-dC)]2 oligonucleotide

| SMILES | GI50 [5] | TGI [5] | Ratio [14] | LC50 (concentration killing 50% of cells) [5] | further results |
| --- | --- | --- | --- | --- | --- |
| NCCNc1ccc(NCCN)c2c1C(=O)c1ccncc1C2=O [PIXANTRONE] | 1.2 nM | 3.2 µM | – | – | CC50 [1]: 2300 nM; CC50 [2]: 50.4 µM; CC50 [3]: 60.4 µM; CC50 [4]: 11.2 µM; CC50 [6]: 38.4 µM; CC50 [7]: 5.1 µM; CC50 [8]: 6.2 µM; CC50 [9]: 32.5 µM; CC50 [10]: 4.8 µM; CC50 [11]: 41.6 µM; CC50 [12]: 6.1 µM; CC50 [13]: 41 µM |
| CN(C)CCNc1ccc(NCCCN(C)CCCNc2ccc(NCCN(C)C)c3c2C(=O)c2ccncc2C3=O)c2c1C(=O)c1cnccc1C2=O | > 100000 nM | – | 7.7 | – | – |
| CCN(CC)CCn1nc2c3c(c(NCCCN(C)CCCNc4ccc5c6c(nn5CCN(CC)CC)-c5cnccc5C(=O)c46)ccc31)C(=O)c1ccncc1-2 | 1 nM | 4.5 µM | – | 97 µM | – |
| CN(C)CCCNc1ccc(NCCCN(C)CCCNc2ccc(NCCCN(C)C)c3c2C(=O)c2cnccc2C3=O)c2c1C(=O)c1ccncc1C2=O | 2000 nM | 7.9 µM | 2.4 | > 100 µM | – |
| CN(CCCNc1ccc(NCCN2CCCC2)c2c1C(=O)c1cnccc1C2=O)CCCNc1ccc(NCCN2CCCC2)c2c1C(=O)c1cnccc1C2=O | 500 nM | 7.9 µM | 2.4 | > 100 µM | – |
| CCN(CC)CCCNc1ccc(NCCCN(C)CCCNc2ccc(NCCCN(CC)CC)c3c2C(=O)c2cnccc2C3=O)c2c1C(=O)c1ccncc1C2=O | 83000 nM | > 100 µM | 1.7 | > 100 µM | – |
| CN(C)CCCn1nc2c3c(c(NCCCN(C)CCCNc4ccc5c6c(nn5CCCN(C)C)-c5ccncc5C(=O)c46)ccc31)C(=O)c1cnccc1-2 | 40000 nM | > 100 µM | – | > 100 µM | – |
| CN(C)CCCn1nc2c3c(c(NCCCN(C)CCCNc4ccc5c6c(nn5CCCN(C)C)-c5cnccc5C(=O)c46)ccc31)C(=O)c1ccncc1-2 | 1600 nM | > 100 µM | – | > 100 µM | – |
| CCN(CC)CCn1nc2c3c(c(NCCCN(C)CCCNc4ccc5c6c(nn5CCN(CC)CC)-c5ccncc5C(=O)c46)ccc31)C(=O)c1cnccc1-2 | 400 nM | > 100 µM | – | > 100 µM | – |
| CN(C)CCn1nc2c3c(c(NCCCN(C)CCCNc4ccc5c6c(nn5CCN(C)C)-c5ccncc5C(=O)c46)ccc31)C(=O)c1cnccc1-2 | 700 nM | > 100 µM | – | > 100 µM | – |
| CN(C)CCCNc1ccc(NCCCN(C)CCCNc2ccc(NCCCN(C)C)c3c2C(=O)c2ccncc2C3=O)c2c1C(=O)c1cnccc1C2=O | > 100000 nM | – | 1.9 | – | – |
| CCN(CC)CCNc1ccc(NCCCN(C)CCCNc2ccc(NCCN(CC)CC)c3c2C(=O)c2cnccc2C3=O)c2c1C(=O)c1ccncc1C2=O | 4500 nM | 32 µM | 3.5 | > 100 µM | – |
| CCN(CC)CCNc1ccc(NCCCN(C)CCCNc2ccc(NCCN(CC)CC)c3c2C(=O)c2ccncc2C3=O)c2c1C(=O)c1cnccc1C2=O | > 100000 nM | – | 5 | – | – |
